How the values were obtained:
barnyardgrass = test: Test C preemergence; type: in vivo, Echinochloa crus-galli; conditions: for Barnyardgrass plant response rating: preemergence
Procedure, shortened: (§1)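 Seeds are planted in blended loam soil and sand and treated preemergence, while seedlings in a peat moss/vermiculite medium receive postemergence sprays at 2 to 18 cm height. All plants stay in the greenhouse for 13 to 15 days before visual comparison with controls on a 0–100 scale.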

soybean = test: Test C preemergence; type: in vivo, Glycine max; conditions: for Soybean plant response rating: preemergence
Procedure, shortened: as §1

Italian ryegrass [1] = test: Test C preemergence; type: in vivo, Lolium multiflorum; conditions: for Ryegrass, Italian plant response rating: preemergence
Procedure, shortened: as §1

oilseed rape = test: Test C preemergence; type: in vivo, Brassica napus; conditions: for Oilseed Rape plant response rating: preemergence
Procedure, shortened: as §1

ragweed [2] = test: Test C preemergence; type: in vivo, Ambrosia elatior; conditions: for Ragweed plant response rating: preemergence
Procedure, shortened: as §1

yellow nutsedge = test: Test C preemergence; type: in vivo, Cyperus esculentus; conditions: for Nutsedge, Yellow plant response rating: preemergence
Procedure, shortened: as §1

lambsquarters = test: Test C preemergence; type: in vivo, Chenopodium album; conditions: for Lambsquarters plant response rating: preemergence
Procedure, shortened: as §1

Italian ryegrass [3] = test: Test A postemergence; type: in vivo, Lolium multiflorum; conditions: 0 to 100 scale where 0 is no effect and 100 is complete control
Procedure, shortened: (§2)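 Visual injury scored 0–100 (100 = complete control) against untreated controls about 10 days after treatment in a greenhouse. Test chemicals, formulated with surfactant in non-phytotoxic solvent, were sprayed on soil preemergence or on 2-10 cm, one- to two-leaf plants postemergence.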

corn = test: Test C preemergence; type: in vivo, Zea mays; conditions: for Corn plant response rating: preemergence
Procedure, shortened: as §1

velvetleaf = test: Test C preemergence; type: in vivo, Abutilon theophrasti; conditions: for Velvetleaf plant response rating: preemergence
Procedure, shortened: as §1

large (Lg) crabgrass = test: Test C preemergence; type: in vivo, Digitaria sanguinalis; conditions: for Crabgrass, Large plant response rating: preemergence
Procedure, shortened: as §1

pigweed = test: Test C preemergence; type: in vivo, Amaranthus retroflexus; conditions: for Pigweed plant response rating: preemergence
Procedure, shortened: as §1

blackgrass = test: Test C preemergence; type: in vivo, Alopecurus myosuroides; conditions: for Blackgrass plant response rating: preemergence
Procedure, shortened: as §1

ragweed [4] = test: Test A postemergence; type: in vivo, Ambrosia elatior; conditions: 0 to 100 scale where 0 is no effect and 100 is complete control
Procedure, shortened: as §2

ragweed [5] = test: Test A preemergence; type: in vivo, Ambrosia elatior
Procedure, shortened: as §2

galium = test: Test A postemergence; type: in vivo, Galium aparine; conditions: 0 to 100 scale where 0 is no effect and 100 is complete control
Procedure, shortened: as §2

morningglory = test: Test C preemergence; type: in vivo, Ipomoea coccinea; conditions: for Morningglory plant response rating: preemergence
Procedure, shortened: as §1

giant foxtail = test: Test C preemergence; type: in vivo, Setaria faberii; conditions: for Foxtail, Giant plant response rating: preemergence
Procedure, shortened: as §1

[6] = 16 g ai/ha, scale 0 to 100 (0 no effect, 100 complete control)
[7] = 62 g ai/ha, scale 0 (no effect) to 100 (complete control)
[8] = 125 g ai/ha, scale 0 (no effect) to 100 (complete control)
[9] = Preemergence, 31 g ai/ha, scale 0 to 100, 0 no effect, 100 complete control

Question: Which results are given for Cc1cnc(Oc2cccc(C#N)c2-n2cc(C#N)cn2)nc1 [Compound 90]?
Answer: Barnyardgrass plant response rating (barnyardgrass; [6]): 0; Barnyardgrass plant response rating (barnyardgrass; [7]): 75; Barnyardgrass plant response rating (barnyardgrass; [8]): 85; Plant response rating, Barnyardgrass (barnyardgrass; [9]): 5; Soybean plant response rating (soybean; [6]): 25; Soybean plant response rating (soybean; [7]): 65; Soybean plant response rating (soybean; [8]): 95; Plant response rating, Soybean (soybean; [9]): 35; Ryegrass, Italian plant response rating (Italian ryegrass [1]; [6]): 0; Ryegrass, Italian plant response rating (Italian ryegrass [1]; [7]): 0; Ryegrass, Italian plant response rating (Italian ryegrass [1]; [8]): 50; Plant response rating, Ryegrass, Italian (Italian ryegrass [1]; [9]): 0; Oilseed Rape plant response rating (oilseed rape; [6]): 60; Oilseed Rape plant response rating (oilseed rape; [7]): 98; Oilseed Rape plant response rating (oilseed rape; [8]): 100; Plant response rating, Oilseed Rape (oilseed rape; [9]): 80; Ragweed plant response rating (ragweed [2]; [6]): 10; Ragweed plant response rating (ragweed [2]; [7]): 100; Ragweed plant response rating (ragweed [2]; [8]): 95; Plant response rating, Ragweed (ragweed [2]; [9]): 60; Nutsedge, Yellow plant response rating (yellow nutsedge; [6]): 35; Nutsedge, Yellow plant response rating (yellow nutsedge; [7]): 5; Nutsedge, Yellow plant response rating (yellow nutsedge; [8]): 60; Plant response rating, Nutsedge, Yellow (yellow nutsedge; [9]): 0; Lambsquarters plant response rating (lambsquarters; [6]): 100; Lambsquarters plant response rating (lambsquarters; [7]): 100; Lambsquarters plant response rating (lambsquarters; [8]): 100; Plant response rating, Lambsquarters (lambsquarters; [9]): 98; Plant response rating, Ryegrass, Italian (Italian ryegrass [3]; 125 g ai/ha): 30; Plant response rating, Ryegrass, Italian (Italian ryegrass [3]; 500 g ai/ha): 80; Corn plant response rating (corn; [6]): 0; Corn plant response rating (corn; [7]): 10; Corn plant response rating (corn; [8]): 45; Plant response rating, Corn (corn; [9]): 0; Velvetleaf plant response rating (velvetleaf; [6]): 35; Velvetleaf plant response rating (velvetleaf; [7]): 98; Velvetleaf plant response rating (velvetleaf; [8]): 100; Plant response rating, Velvetleaf (velvetleaf; [9]): 65; Crabgrass, Large plant response rating (large (Lg) crabgrass; [6]): 25; Crabgrass, Large plant response rating (large (Lg) crabgrass; [7]): 98; Crabgrass, Large plant response rating (large (Lg) crabgrass; [8]): 100; Plant response rating, Crabgrass, Large (large (Lg) crabgrass; [9]): 98; Pigweed plant response rating (pigweed; [6]): 40; Pigweed plant response rating (pigweed; [7]): 98; Pigweed plant response rating (pigweed; [8]): 100; Plant response rating, Pigweed (pigweed; [9]): 85; Blackgrass plant response rating (blackgrass; [6]): 5; Blackgrass plant response rating (blackgrass; [7]): 30; Blackgrass plant response rating (blackgrass; [8]): 85; Plant response rating, Blackgrass (blackgrass; [9]): 5; Plant response rating, Ragweed (ragweed [4]; 125 g ai/ha): 60; Plant response rating, Ragweed (ragweed [4]; 500 g ai/ha): 80; Plant response rating, Ragweed (ragweed [5]; 125 g ai/ha, 0 to 100 scale where 0 is no effect and 100 is complete control): 50; Ragweed plant response rating (ragweed [5]; 500 g ai/ha, 0 to 100 scale, 0 no effect, 100 complete control, approx. 10 days): 80; Plant response rating, Galium (galium; 125 g ai/ha): 90; Plant response rating, Galium (galium; 500 g ai/ha): 100; Morningglory plant response rating (morningglory; [6]): 0; Morningglory plant response rating (morningglory; [7]): 55; Morningglory plant response rating (morningglory; [8]): 100; Plant response rating, Morningglory (morningglory; [9]): 20; Foxtail, Giant plant response rating (giant foxtail; [6]): 5; Foxtail, Giant plant response rating (giant foxtail; [7]): 75; Foxtail, Giant plant response rating (giant foxtail; [8]): 100; Plant response rating, Foxtail, Giant (giant foxtail; [9]): 45
